“Also recorded” adds a separate entry of the source.
How the values were obtained:
[1] = system: blue light induced photoreceptor injury; assay: blue light induced photoreceptor injury (ERG and histology); format: in vivo, Sprague Dawley rat
Method: Exposure to blue light results in a loss of photoreceptor cells in the outer retina (arrows).
Hemotoxylin and Eosin stained retinal sections are imaged and outer nuclear layer (ONL) thickness and cell count is evaluated in 8 consecutive regions on either side of the optic nerve head (ONH) (A). In Sprague Dawley rat the typical ONL thickness and photoreceptor cell counts adjacent to the ONH are approximately 40 microns and 10 cells, respectively (B). The cell counts and thicknesses from a retinal section taken from the vertical meridian reveal that in naïve retinae they are stable from just adjacent to ONH in to the ora serata (C,D).
Rat eyes were cut parallel to the vertical meridian through the optic nerve head and several sections were collected. […] Within each […] region, 3 measurements, […] apart, were conducted, averaged and reported as ONL thickness (um). The number of rod and cone nuclei spanning the outer nuclear layer at each measurement site were counted manually and tabulated as photoreceptor #. For each animal, two to three sections were analyzed and averaged to give a final quantifiable value.

[2] = system: seizures induced by a 6 Hz alternating current in mice; assay: 6 Hz seizure model; format: in vivo; conditions: for Protected/Tested: 6 Hz 32 milliamp; for Protected/Tested / Deaths: 0.50 hr; for Deaths: 6 Hz
[3] = system: Experimental Autoimmune Encephalomyelitis (EAE); assay: Experimental Autoimmune Encephalomyelitis (EAE), clinical score and flash VEP; format: in vivo, rats
Text: Encephalomyelitis (EAE). (A) Representative flash Visual Evoked Potential (VEP) traces from baseline and following the induction of EAE. Three distinct peaks, N1, P2, N2 are labeled in the traces, with P2 being the most reproducible. Note that following the induction of EAE the latency to the P2 peak is increased. This is associated with a poor visual outcome in Optic Neuritis in humans. […] The maximum clinical score is the score associated with the most severe paralysis each animal experienced during the daily observation period.

[4] = system: capsaicin-induced thermal hyperalgesia; assay: capsaicin-induced thermal hyperalgesia, plantar test; format: in vivo, rat; conditions: doses 10 mg/kg and above, i.p., FIG. 10
Text: A second method for evaluating of 1,2 substituted benzimidazoles on neuropathic pain was to determine their effects on capsaicin-induced thermal hyperalgesia in the rat.
Peripherally administered capsaicin (the active agent in chili peppers) induces an acute, local, inflammatory response through actions on nociceptive sensory nerve endings (‘pain fibers”). In rats, intraplantar injection of capsaicin produces decease in withdrawal latency to radiant heat (thermal hyperalgesia). This primary hyperalgesia, observed at the site of injury, is characterized by sensitization to thermal and mechanical stimulation. Primary hyperalgesia, especially that elicited by noxious thermal stimulus, is mediated, in part, by sensitization of C-fiber mechanoheat (polymodal) receptors (Kennis, 1982; Konietzny and Hensel, 1983; Simone, et al, 1987). […]
Intraplantar injection of capsaicin ([…]) was used to induce thermal hyperalgesia, as described previously(Gilchrist et al., 1996). […] For this test, hind paw withdrawal latencies (PWLs) to a noxious thermal stimulus were determined using the technique described by Hargreaves et al. (1988) using a plantar test apparatus (PAW
Thermal Analgesia Meter instrument Department of Anesthesiology, UCSD, San Diego, Calif.). Time to remove paw from heat source is measured and expressed as the paw withdrawal latency. […]
assessed 30 minutes after capsaicin challenge. […]

[5] = system: mechanical allodynia produced by spinal nerve ligation; assay: spinal nerve ligation (Chung Model), mechanical allodynia, von Frey hairs; format: in vivo, rats
Method: To assess the actions of the presently claimed benzimdazole compounds in neuropathic pain their efficacy in reversing the mechanical allodynia produced by spinal nerve ligation (Chung Model) and reducing the thermal hyperalgesia produced by subcutaneous injection of capsaicin was determined.
In the Chung spinal nerve ligation model, rats are anesthetized before surgery. The surgical site is shaved and prepared either with betadine or Novacaine. Incision is made from the thoracic vertebra XIII down toward the sacrum. Muscle tissue is separated from the spinal vertebra (left side) at the L4-S2 levels. The L6 vertebra is located and the transverse process is carefully removed with a small rongeur to expose the L4-L6 spinal nerves. The L5 and L6 spinal nerves are isolated and tightly ligated with 6-0 silk thread. The same procedure is done on the right side as a control, except no ligation of the spinal nerves is performed. […]
Compounds to be tested were prepared as suspension in vehicle containing 2% sodium carboxymethylcellulose (CMC) and 1% Pluronic FI 27 by vigorous homogenization. […] Tactile allodynia was measured prior to and at increments of 15, 30, 60 and 90 minutes after drug administration using von Frey hairs that are a series of fine hairs with incremental differences in stiffness. […] The applied force has been calculated to range from 0.41 to 15.1 grams. […]

Nav1.3 = target: T1, Nav1.3 (Homo sapiens, UniProt Q9NY46); assay: gigohm-seal manual patch-clamp (MPC) on HEK cells stably transfected with sodium channels; format: cell-based
T1 construct: expressed in transfected cells; host or cells: HEK cells, stably transfected
T1 sequence (Q9NY46 whole entry): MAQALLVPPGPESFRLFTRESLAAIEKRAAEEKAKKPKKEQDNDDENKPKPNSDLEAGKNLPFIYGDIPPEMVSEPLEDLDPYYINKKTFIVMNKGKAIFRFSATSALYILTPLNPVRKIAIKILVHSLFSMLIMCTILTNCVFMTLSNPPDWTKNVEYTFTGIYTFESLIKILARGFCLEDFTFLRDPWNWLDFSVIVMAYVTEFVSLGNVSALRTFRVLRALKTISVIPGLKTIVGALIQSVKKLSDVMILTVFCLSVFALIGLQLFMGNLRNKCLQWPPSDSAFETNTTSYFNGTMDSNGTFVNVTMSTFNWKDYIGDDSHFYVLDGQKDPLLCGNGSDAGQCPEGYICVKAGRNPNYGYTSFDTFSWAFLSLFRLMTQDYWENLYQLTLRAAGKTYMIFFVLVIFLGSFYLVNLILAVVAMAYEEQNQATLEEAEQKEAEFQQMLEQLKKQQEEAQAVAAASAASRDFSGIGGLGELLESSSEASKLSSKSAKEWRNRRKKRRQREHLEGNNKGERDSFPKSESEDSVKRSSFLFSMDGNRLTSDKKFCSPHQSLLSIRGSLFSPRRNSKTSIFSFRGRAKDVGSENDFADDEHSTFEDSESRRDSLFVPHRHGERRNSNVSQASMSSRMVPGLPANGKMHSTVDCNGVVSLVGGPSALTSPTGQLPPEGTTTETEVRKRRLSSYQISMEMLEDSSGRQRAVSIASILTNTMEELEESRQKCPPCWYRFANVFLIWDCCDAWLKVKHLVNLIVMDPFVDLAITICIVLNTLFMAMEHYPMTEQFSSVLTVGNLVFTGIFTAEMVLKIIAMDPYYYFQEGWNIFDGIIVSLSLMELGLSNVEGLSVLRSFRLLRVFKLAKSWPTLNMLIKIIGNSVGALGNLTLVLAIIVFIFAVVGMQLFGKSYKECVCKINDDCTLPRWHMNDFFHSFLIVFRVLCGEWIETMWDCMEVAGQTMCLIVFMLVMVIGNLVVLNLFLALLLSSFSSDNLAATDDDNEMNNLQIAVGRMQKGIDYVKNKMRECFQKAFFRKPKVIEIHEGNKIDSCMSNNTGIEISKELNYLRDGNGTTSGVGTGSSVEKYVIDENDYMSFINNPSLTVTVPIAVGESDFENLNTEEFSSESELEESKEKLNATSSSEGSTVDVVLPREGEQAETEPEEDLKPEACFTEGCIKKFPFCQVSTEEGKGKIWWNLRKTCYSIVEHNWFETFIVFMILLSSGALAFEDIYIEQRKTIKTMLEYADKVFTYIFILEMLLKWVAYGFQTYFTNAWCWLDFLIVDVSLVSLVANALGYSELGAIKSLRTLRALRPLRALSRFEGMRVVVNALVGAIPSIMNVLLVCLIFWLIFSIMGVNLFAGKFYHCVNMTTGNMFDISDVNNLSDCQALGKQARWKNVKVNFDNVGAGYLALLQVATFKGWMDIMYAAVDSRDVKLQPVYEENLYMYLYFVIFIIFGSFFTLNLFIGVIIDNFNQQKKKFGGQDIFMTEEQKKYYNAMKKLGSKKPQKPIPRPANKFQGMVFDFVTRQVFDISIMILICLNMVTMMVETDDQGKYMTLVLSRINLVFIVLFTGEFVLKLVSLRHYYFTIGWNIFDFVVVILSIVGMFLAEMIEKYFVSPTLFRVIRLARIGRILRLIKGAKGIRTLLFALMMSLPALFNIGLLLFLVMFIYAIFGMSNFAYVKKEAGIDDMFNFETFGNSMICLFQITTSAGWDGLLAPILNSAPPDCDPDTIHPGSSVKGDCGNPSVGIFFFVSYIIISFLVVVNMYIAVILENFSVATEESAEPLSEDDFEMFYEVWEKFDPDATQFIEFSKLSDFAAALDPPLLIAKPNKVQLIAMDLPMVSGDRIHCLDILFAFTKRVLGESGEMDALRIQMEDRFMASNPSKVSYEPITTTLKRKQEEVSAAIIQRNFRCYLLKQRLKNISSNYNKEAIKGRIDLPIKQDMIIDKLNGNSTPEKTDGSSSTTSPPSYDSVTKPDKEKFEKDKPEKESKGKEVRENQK
Method: Therefore, the efficacy and selectivity of the identified persistent current antagonists were verified using conventional gigohm-seal manual patch-clamp (MPC).
MPC experiments were conducted on human embroynic kidney (HEK) cells stably transfected with sodium channels were plated on coverslips. Cells were patch clamped using standard patch-clamp techniques (Hamill, O. P., A. Marty, et al., 1981 Pflugers Arch. 391:85-100). Once sufficient persistent current was established, buffer was introduced into the chamber at a constant flow rate of […] until the persistent current stabilized. Subsequent concentration-response experiments were conducted using this same flow rate. After application of the compound, current amplitude was monitored until equilibrium was established. The data recorded at equilibrium was normalized to the control current measured during perfusion with control buffer in the absence of a test compound. Adequate solution perfusion and gigohm seal stability were monitored throughout the experiment. The compound's antagonism of persistent or transient sodium currents is expressed as the IC5O of block for the respective current (see Table 1). Selectivity for block of the persistent current was calculated as the ratio of the IC5O for the transient current divided by the IC5O for the persistent current.

[6] = system: rat cultured hippocampal pyramidal neurons; assay: spontaneous firing of cultured hippocampal neurons, whole cell current clamp; format: cell-based; conditions: 1 μM, FIG. 2
Method: Activity of the compounds on the rate of spontaneous firing of neurons was assessed in hippocampal neurons. Hippocampal cells from P-2 rats were cultured for 10-14 days prior to use. Cells were plated on laminin-coated cover slips that could be transferred to a perfusion chamber for conventional whole cell electrophysiological studies. Conventional whole cell current clamp methods were used to record steady state and spontaneous action potentials. Cells were held at their resting potential (Iclamp=0 pA) and spontaneous action potentials were recorded and followed over time. Healthy cells had low rates of spontaneous firing. Spontaneous firing rate increased with metabolic insults to cells, e.g. Mg^2+-depletion or with aging. Spontaneous firing appeared to occur more often in older cell cultures (10-14 days).
The “current clamp” mode was employed tomeasure frequency of spontaneous discharge and action potential bursting in the absence and presence of compound #3 (1 μM). […] The results of these experiments contribute to the efficacy profile of the compounds of the present invention.

COc1cccc(OCc2nc3ccc(OCCC(C)C)cc3n2CC(C)C)c1 [Compound #2, 1-Isobutyl-2-(3-methoxy-phenoxymethyl)-6-(3-methyl-butoxy)-1H-benzimidazole]
retinal function and structure as determined by ERG and histology ([1]; 30 mg/kg i.p., 6 hour blue light exposure, FIG. 8): preserves retinal function and structure
Protected/Tested ([2]; dose 12.5 mg/kg): 1/8
Protected/Tested ([2]; dose 25.0 mg/kg): 3/8
Protected/Tested ([2]; dose 50.0 mg/kg): 3/8
Protected/Tested ([2]; dose 100.0 mg/kg): 5/8
Protected/Tested ([2]; dose 200.0 mg/kg): 8/8
Deaths ([2]; dose 12.5 mg/kg): 0
Deaths ([2]; dose 25.0 mg/kg): 0
Deaths ([2]; dose 50.0 mg/kg): 0
Deaths ([2]; dose 100.0 mg/kg): 0
Deaths ([2]; dose 200.0 mg/kg): 0
EC50 in the 6 Hz seizure model ([2]; mice): 50.7 mg/kg
predicted TD50 ([2]; mice): > 500 mg/kg
VEP latency (P2 peak) ([3]; 50 mg/kg, FIG. 11 B, C): preserves VEP latency
maximum clinical score versus vehicle ([3]; FIG. 11): significantly (P<0.01) average lower clinical score
initial clinical sign of paralysis ([3]; dose of 30 mg/kg, FIG. 11): significantly reduces

C=C(C)Cn1c(COc2cccc(OC)c2)nc2ccccc21 [Compound #3, 1-[1-(2-methylprop-2-enyl)benzimidazol-2-ylmethoxy]-3-methoxybenzene]
retinal function as determined by ERG (b-wave and a-wave amplitude) ([1]; 100 mg/kg i.p., after blue light exposure, FIG. 6): significantly preserves retinal function
structural integrity of the retina by histology (ONL thickness, photoreceptor count) ([1]; 100 mg/kg i.p., after blue light exposure, FIG. 7): preserved the structural integrity of the retina; also recorded: protects photoreceptors from blue-light induced toxicity
capsaicin-induced thermal hyperalgesia [4]: significantly reduces
allodynia with respect to vehicle injected controls ([5]; doses of 300 mg/kg, i.p., FIG. 9): significantly reduced
reversal of mechanical allodynia ([5]; doses of 30 and 300 mg/kg, FIG. 9 legend): significantly reduced
concentration blocking 50% of the persistent current (Nav1.3; FIG. 1): low to submicromolar
IC50 (Nav1.3; FIG. 1, read-out: effective dose for blocking the transient current): > 30 µM
bursting activity (spontaneous bursts of action potentials) [6]: bursting activity was reduced
spontaneous discharge of action potentials [6]: potently decreased

From US9540332B2, “Benzimidazole derivatives as selective blockers of persistent sodium current” (Allergan, Inc., priority 2011, dated 2017)
